Measured values: PubChem BioAssay (NCI)
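Dose response: 5 concentrations. Exposure: 48 h. Format: 96-well plates. Endpoint: linear interpolation; highest concentration if not reached. The concentration for 50% growth inhibition is given as GI50. TGI: concentration producing complete growth inhibition.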

How the values were obtained:
Assay in all cases: inhibition of tumour cell growth, NCI panel, 48 h
[1] = system: MDA-MB-231 breast
[2] = system: HCT-116 colon
[3] = system: RXF 393 renal
[4] = system: OVCAR-8 ovarian
[5] = system: MOLT-4 leukemia
[6] = system: U251 CNS
[7] = system: SK-MEL-28 melanoma
[8] = system: HOP-62 NSCLC
[9] = system: MALME-3M melanoma
[10] = system: LOX IMVI melanoma
[11] = system: HL-60(TB) leukemia
[12] = system: SF-539 CNS
[13] = system: SK-MEL-5 melanoma
[14] = system: SF-295 CNS
[15] = system: SR leukemia
[16] = system: UACC-62 melanoma
[17] = system: MDA-MB-435
[18] = system: HOP-92 NSCLC
[19] = system: RPMI-8226 leukemia
[20] = system: M14 melanoma
[21] = system: HS 578T breast
[22] = system: NCI-H460 lung
[23] = system: BT-549 breast
[24] = system: HCT-15 colon
[25] = system: A498 renal
[26] = system: NCI/ADR-RES ovarian
[27] = system: OVCAR-4 ovarian
[28] = system: HT29 colon
[29] = system: NCI-H522 lung
[30] = system: HCC-2998 colon
[31] = system: PC-3 prostate
[32] = system: 786-0 renal
[33] = system: UO-31 renal
[34] = system: CAKI-1 renal
[35] = system: T-47D breast

SMILES: Cc1c(C(=O)NCCN2CCOCC2)cn2ncnc(Oc3ccc(NC(=O)Nc4ccc(Cl)c(C(F)(F)F)c4)cc3)c12
- GI50 [1]: 1.31 µM
- TGI [1]: 2.91 µM
- GI50 [2]: 0.711 µM
- TGI [2]: 2.1 µM
- GI50 [3]: 1.22 µM
- TGI [3]: 2.73 µM
- GI50 [4]: 3.1 µM
- TGI [4]: > 100 µM
- GI50 [5]: 0.433 µM
- TGI [5]: 2.6 µM
- GI50 [6]: 1.79 µM
- TGI [6]: 5.36 µM
- GI50 [7]: 1.06 µM
- TGI [7]: 2.39 µM
- GI50 [8]: 1.99 µM
- TGI [8]: 3.92 µM
- GI50 [9]: 1.09 µM
- TGI [9]: 2.76 µM
- GI50 [10]: 0.601 µM
- TGI [10]: 1.94 µM
- GI50 [11]: 0.417 µM
- TGI [11]: 1.7 µM
- GI50 [12]: 0.508 µM
- TGI [12]: 2.14 µM
- GI50 [13]: 1.65 µM
- TGI [13]: 3.01 µM
- GI50 [14]: 1.77 µM
- TGI [14]: 3.34 µM
- GI50 [15]: 0.339 µM
- TGI [15]: 2.26 µM
- GI50 [16]: 1.34 µM
- TGI [16]: 2.84 µM
- GI50 [17]: 1.29 µM
- TGI [17]: 2.75 µM
- GI50 [18]: 1.02 µM
- TGI [18]: 2.8 µM
- GI50 [19]: 0.545 µM
- TGI [19]: 3.01 µM
- GI50 [20]: 1.08 µM
- TGI [20]: 2.55 µM
- GI50 [21]: 1.48 µM
- TGI [21]: 3.99 µM
- GI50 [22]: 1.16 µM
- TGI [22]: 2.8 µM
- GI50 [23]: 1.66 µM
- TGI [23]: 3.21 µM
- GI50 [24]: 1.44 µM
- TGI [24]: 2.98 µM
- GI50 [25]: 1.6 µM
- TGI [25]: 3.08 µM
- GI50 [26]: 2.13 µM
- TGI [26]: 5.16 µM
- GI50 [27]: 2.37 µM
- TGI [27]: 5.61 µM
- GI50 [28]: 1.57 µM
- TGI [28]: > 100 µM
- GI50 [29]: 1.76 µM
- TGI [29]: 4.23 µM
- GI50 [30]: 2.04 µM
- TGI [30]: 3.71 µM
- GI50 [31]: 0.842 µM
- TGI [31]: 2.33 µM
- GI50 [32]: 1.67 µM
- TGI [32]: 3.33 µM
- GI50 [33]: 2.18 µM
- TGI [33]: 3.83 µM
- GI50 [34]: 1.46 µM
- TGI [34]: 2.92 µM
- GI50 [35]: 2.02 µM
- TGI [35]: 6.38 µM
